Columns and labels:
Format in all cases: cell-based
SW480 colon cancer cells = assay: Cell viability assay (CellTiter-Blue); conditions: Homo sapiens, 96 h, four days; for inhibition at 10 µM: given where EC50 >10 μM, read-out: percent inhibition at 10 μM
Procedure, shortened: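 SW480 colon cancer cells (~2×10^3/well) exposed to 8-point 1:3 dilutions from 10 μM to 0.0045 μM for four days at 37 °C/5% CO2. Viability read by resazurin (CellTiter-Blue) fluorescence after ~3 h, Ex 560/Em 590 nm. EC50 from non-linear regression; percent inhibition at 10 μM given when EC50 >10 μM.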

[1] = tested on: Wnt activity (Sp5-Luc reporter, SW480 colon carcinoma cells); assay: Wnt activity screening assay, Sp5-Luc reporter gene in SW480 cells; conditions: Homo sapiens; for inhibition at 10 µM: given where EC50 >10 μM, read-out: percent inhibition at 10 μM; for EC50: overnight incubation
Procedure, shortened: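 Luminescence read-out (BrightGlo) from stable Sp5-Luc SW480 cells, normalized to DMSO-only wells. Cells were treated overnight at 37° C in 1% FBS medium across a 1:3, 10-point series starting at 10 μM. EC50 from variable-slope four-parameter regression; percent inhibition at 10 μM given where EC50 >10 μM.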

IL-6 (THP-1 cells) = assay: IL-6 inhibition in LPS-stimulated THP-1 cells (HTRF); conditions: Homo sapiens; for EC50: IL-6 in THP-1 cells, LPS 500 ng/mL, 22 hours; for inhibition at 10 µM: given where EC50 >10 μM, IL-6, THP-1 cells, LPS, read-out: percent inhibition at 10 μM
Procedure, shortened: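 THP-1 cells, serum-reduced (1% FBS) for 24 h, were preincubated with compound (10-point 1:3 series from 10 μM, 0.1% DMSO) for 2 h, then stimulated with 500 ng/mL LPS for 22 h at 37° C. IL-6 was read by HTRF (665/620 nm ratio) and normalized to DMSO. EC50 from four-parameter fit; % inhibition at 10 μM given if EC50 >10 μM.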

Row | SMILES | EC50 (SW480 colon cancer cells) | EC50 [1] | EC50 (IL-6 (THP-1 cells)) | inhibition at 10 µM [1] | inhibition at 10 µM (SW480 colon cancer cells) | inhibition at 10 µM (IL-6 (THP-1 cells))
1 | CN1CCN(c2ccnc3[nH]c(-c4n[nH]c5cnc(-c6cncc(CNCC7CCCC7)c6)cc45)cc23)CC1 [Compound 249, 1-Cyclopentyl-N-((5-(3-(4-(4-methylpiperazin-1-yl)-1H-pyrrolo[2,3-b]pyridin-2-yl)-1H-pyrazolo[3,4-c]pyridin-5-yl)pyridin-3-yl)methyl)methanamine] | 4.29 µM | > 10 µM | 7.87 µM | 41.4% |  | 
2 | FC1(F)CCN(Cc2cncc(-c3cc4c(-c5cc6cccnc6[nH]5)n[nH]c4cn3)c2)C1 [Compound 278, 5-(5-((3,3-Difluoropyrrolidin-1-yl)methyl)pyridin-3-yl)-3-(1H-pyrrolo[2,3-b]pyridin-2-yl)-1H-pyrazolo[3,4-c]pyridine] | 5.01 µM | 1.35 µM | 0.029 µM |  |  | 
3 | Nc1cncc(-c2cc3c(-c4cc5c(-c6ccoc6)ccnc5[nH]4)n[nH]c3cn2)c1 [Compound 311, 5-(3-(4-(Furan-3-yl)-1H-pyrrolo[2,3-b]pyridin-2-yl)-1H-pyrazolo[3,4-c]pyridin-5-yl)pyridin-3-amine] | > 10 µM | > 10 µM | > 10 µM | 23.2% | 5.5% | 36.3%
4 | CCCC(=O)Nc1cncc(-c2cc3c(-c4cc5c(-c6cc(F)cc(NCCN(C)C)c6)ccnc5[nH]4)n[nH]c3cn2)c1 [Compound 465, N-(5-(3-(4-(3-((2-(Dimethylamino)ethyl)amino)-5-fluorophenyl)-1H-pyrrolo [2,3-b]pyridin-2-yl)-1H-pyrazolo[3,4-c]pyridin-5-yl)pyridin-3-yl)butyramide] | > 10 µM | > 10 µM | > 10 µM | 16.1% | 10.6% | 21.5%
5 | CN(C)CCNc1cc(F)cc(-c2ccnc3[nH]c(-c4n[nH]c5cnc(-c6ccncc6)cc45)cc23)c1 [Compound 466, N^1-(3-Fluoro-5-(2-(5-(pyridin-4-yl)-1H-pyrazolo[3,4-c]pyridin-3-yl)-1H-pyrrolo[2,3-b]pyridin-4-yl)phenyl)-N^2,N^2-dimethylethane-1,2-diamine] | > 10 µM | > 10 µM | > 10 µM | 16.5% | 16.8% | 5.9%
6 | CN(C)CCNc1cc(F)cc(-c2ccnc3[nH]c(-c4n[nH]c5cnc(-c6cncnc6)cc45)cc23)c1 [Compound 475, N^1-(3-Fluoro-5-(2-(5-(pyrimidin-5-yl)-1H-pyrazolo[3,4-c]pyridin-3-yl)-1H-pyrrolo[2,3-b]pyridin-4-yl)phenyl)-N^2,N^2-dimethylethane-1,2-diamine] | > 10 µM | > 10 µM | > 10 µM | 10.9% | 17% | 6.3%
7 | Oc1cncc(-c2cc3c(-c4cc5c(-c6ccc(F)cc6)ccnc5[nH]4)n[nH]c3cn2)c1 [Compound 533, 5-(3-(4-(4-Fluorophenyl)-1H-pyrrolo[2,3-b]pyridin-2-yl)-1H-pyrazolo[3,4-c]pyridin-5-yl)pyridin-3-ol] | 0.483 µM | 0.456 µM | > 10 µM |  |  | 7.2%
8 | CN(C)CCOc1cncc(-c2cc3c(-c4cc5c(-c6cccnc6)ccnc5[nH]4)n[nH]c3cn2)c1 [Compound 563, N,N-Dimethyl-2-((5-(3-(4-(pyridin-3-yl)-1H-pyrrolo[2,3-b]pyridin-2-yl)-1H-pyrazolo[3,4-c]pyridin-5-yl)pyridin-3-yl)oxy)ethan-1-amine] | > 10 µM | > 10 µM | > 10 µM | 28.8% | 0% | 15%
9 | c1cc(N2CCCCC2)c2cc(-c3n[nH]c4cnc(C5CCNCC5)cc34)[nH]c2n1 [Compound 601, 3-(4-(Piperidin-1-yl)-1H-pyrrolo[2,3-b]pyridin-2-yl)-5-(piperidin-4-yl)-1H-pyrazolo[3,4-c]pyridine] | > 10 µM | > 10 µM | > 10 µM | 0% | 12% | 3%
10 | CN1CCN(c2ccnc3[nH]c(-c4n[nH]c5cnc(-c6cn[nH]c6)cc45)cc23)CC1 [Compound 635, 3-(4-(4-Methylpiperazin-1-yl)-1H-pyrrolo[2,3-b]pyridin-2-yl)-5-(1H-pyrazol-4-yl)-1H-pyrazolo[3,4-c]pyridine] | > 10 µM | > 10 µM | > 10 µM | 25.4% | 10.7% | 10.9%
11 | CN1CCN(c2ccnc3[nH]c(-c4n[nH]c5cnc(-c6cncc(NC(=O)CC7CCNCC7)c6)cc45)cc23)CC1 [Compound 641, N-(5-(3-(4-(4-Methylpiperazin-1-yl)-1H-pyrrolo[2,3-b]pyridin-2-yl)-1H-pyrazolo[3,4-c]pyridin-5-yl)pyridin-3-yl)-2-(piperidin-4-yl)acetamide] | > 10 µM | > 10 µM | > 10 µM | 8% | 13.1% | 29.6%
12 | Cn1cc(-c2cc3c(-c4cc5cccnc5[nH]4)n[nH]c3cn2)cn1 [Compound 652, 5-(1-Methyl-1H-pyrazol-4-yl)-3-(1H-pyrrolo[2,3-b]pyridin-2-yl)-1H-pyrazolo[3,4-c]pyridine] | > 10 µM | > 10 µM | > 10 µM | 21.6% | 0% | 15.2%
13 | c1csc(-c2ccnc3[nH]c(-c4n[nH]c5cnc(-c6cncc(OC7CCCCC7)c6)cc45)cc23)c1 [Compound 703, 5-(5-(Cyclohexyloxy)pyridin-3-yl)-3-(4-(thiophen-2-yl)-1H-pyrrolo[2,3-b]pyridin-2-yl)-1H-pyrazolo[3,4-c]pyridine] | > 10 µM | > 10 µM | > 10 µM | 13.6% | 2.7% | 43.3%

The next lines start with results.

Row | EC50 (SW480 colon cancer cells) | EC50 [1] | EC50 (IL-6 (THP-1 cells)) | SMILES | inhibition at 10 µM [1] | inhibition at 10 µM (SW480 colon cancer cells) | inhibition at 10 µM (IL-6 (THP-1 cells))
14 | > 10 µM | > 10 µM | 0.529 µM | CC(C)CC(=O)Nc1cncc(-c2cc3c(-c4cc5cccnc5[nH]4)n[nH]c3cn2)c1 [Compound 254, N-(5-(3-(1H-Pyrrolo[2,3-b]pyridin-2-yl)-1H-pyrazolo[3,4-c]pyridin-5-yl)pyridin-3-yl)-3-methylbutanamide] | 12.4% | 20.2% | 
15 | > 10 µM | > 10 µM | 0.023 µM | c1cncc(-c2cc3c(-c4cc5cccnc5[nH]4)n[nH]c3cn2)c1 [Compound 256, 5-(Pyridin-3-yl)-3-(1H-pyrrolo[2,3-b]pyridin-2-yl)-1H-pyrazolo[3,4-c]pyridine] | 57.7% | 19.3% | 
16 | > 10 µM | > 10 µM | > 10 µM | O=C(Cc1ccccc1)Nc1cncc(-c2cc3c(-c4cc5cccnc5[nH]4)n[nH]c3cn2)c1 [Compound 262, N-(5-(3-(1H-Pyrrolo[2,3-b]pyridin-2-yl)-1H-pyrazolo[3,4-c]pyridin-5-yl)pyridin-3-yl)-2-phenylacetamide] | 9.1% | 26.5% | 26.7%
17 | > 10 µM | > 10 µM | > 10 µM | O=C(Nc1cncc(-c2cc3c(-c4cc5cccnc5[nH]4)n[nH]c3cn2)c1)c1ccccc1 [Compound 263, N-(5-(3-(1H-Pyrrolo[2,3-b]pyridin-2-yl)-1H-pyrazolo[3,4-c]pyridin-5-yl)pyridin-3-yl)benzamide] | 17% | 22.5% | 39.2%
18 | > 10 µM | > 10 µM | 3.06 µM | O=C(Nc1cncc(-c2cc3c(-c4cc5cccnc5[nH]4)n[nH]c3cn2)c1)C1CC1 [Compound 272, N-(5-(3-(1H-Pyrrolo[2,3-b]pyridin-2-yl)-1H-pyrazolo[3,4-c]pyridin-5-yl)pyridin-3-yl)cyclopropanecarboxamide] | 19.3% | 23.3% | 
19 | > 10 µM | > 10 µM | > 10 µM | O=C(Nc1cncc(-c2cc3c(-c4cc5cccnc5[nH]4)n[nH]c3cn2)c1)C1CCCCC1 [Compound 275, N-(5-(3-(1H-Pyrrolo[2,3-b]pyridin-2-yl)-1H-pyrazolo[3,4-c]pyridin-5-yl)pyridin-3-yl)cyclohexanecarboxamide] | 14% | 9.5% | 24.7%
20 | > 10 µM | > 10 µM | > 10 µM | Fc1cccc(-c2ccnc3[nH]c(-c4n[nH]c5cnc(-c6cncc(OCc7ccccc7)c6)cc45)cc23)c1 [Compound 518, 5-(5-(Benzyloxy)pyridin-3-yl)-3-(4-(3-fluorophenyl)-1H-pyrrolo[2,3-b]pyridin-2-yl)-1H-pyrazolo[3,4-c]pyridine] | 3.3% | 41.5% | 0%

From US10285982B2, “3-(1H-pyrrolo[2,3-B]pyridin-2-yl)-1H-pyrazolo[3,4-C]pyridines and therapeutic uses thereof” (Samumed, LLC, priority 2015, dated 2019)
